Laboratory results published in patent publication US9447100B2, “Substituted pyrazolo[1,5-A] pyrimidines as calcium receptor modulating agents” (Takeda Pharmaceutical Company Limited, priority 2002, dated 2016).
Where a name gives a salt, the structure may show the parent alone.

Row | SMILES | melting point [°C]
1 | CCC(CC)(NC(=O)c1c(SC)nn2c1NC(c1ccccc1)CC2(C)C)c1ccc(Cl)cc1 (stereo not drawn) (as salt: HCl) [Example 780, N-(1-(4-chlorophenyl)-1-ethylpropyl)-7,7-dimethyl-2-(methylthio)-5-phenyl-4,5,6,7-tetrahydropyrazolo[1,5-a]pyrimidine-3-carboxamide] | 115 to 117
2 | CCC1(CC)C[C@@H](OC)CN1C(=O)c1c(C)nn2c1N[C@@H](c1ccccc1)CC2(C)C [Example 1099, (5R)-3-(((4R)-2,2-diethyl-4-methoxy-1-pyrralidinyl)carbanyl)-2,7,7-trimethyl-5-phenyl-4,5,6,7-tetrahydropyrazolo[1,5-a]pyrimidine] | 132 to 134
3 | CC1(NC(=O)c2cnn3c2NC(c2ccccc2)CC3(C)C)CCCCC1 (stereo not drawn) [Example 586, 7,7-dimethyl-N-(1-methylcyclohexyl)-5-phenyl-4,5,6,7-tetrahydropyrazolo[1,5-a]pyrimidine-3-carboxamide] | 170 to 171
4 | Cc1ccc(C2CC(C)(C)n3ncc(C(=O)O)c3N2)c(C)c1 (stereo not drawn) [Example 952, 5-(2,4-dimethylphenyl)-7,7-dimethyl-4,5,6,7-tetrahydropyrazolo[1,5-a]pyrimidine-3-carboxylic acid] | 155 to 157
5 | CCC(CC)(NC(=O)c1c(C)nn2c1NC(c1ccccc1)CC2(C)C)c1ccc(C(C)=O)cc1 (stereo not drawn) [Example 977, N-(1-(4-acetylphenyl)-1-ethylpropyl)-2,7,7-trimethyl-5-phenyl-4,5,6,7-tetrahydropyrazolo[1,5-a]pyrimidine-3-carboxamide] | 200 to 202
6 | Cc1cccc(C2CC(C)(C)n3nc(C)c(C(=O)O)c3N2)c1 (stereo not drawn) [Example 946, 2,7,7-trimethyl-5-(3-methylphenyl)-4,5,6,7-tetrahydropyrazolo[1,5-a]pyrimidine-3-carboxylic acid] | 146 to 148
7 | CCC1(CC)C[C@H](OCc2ccccc2)CN1C(=O)c1cnn2c1N[C@H](c1ccccc1)CC2(C)C [Example 1109, (5S)-3-(((4S)-4-(benzyloxy)-2,2-diethy-1-pyrrolidinyl)carbonyl)-7,7-dimethyl-5-phenyl-4,5,6,7-tetrahydropyrazolo[1,5-a]pyrimidine] | 116 to 118
8 | COc1ccc(C2CC(C(F)(F)F)n3ncc(C(=O)O)c3N2)cc1 (stereo not drawn) [Example 25, 5-(4-methoxyphenyl)-7-(trifluoromethyl)-4,5,6,7-tetrahydropyrazolo[1,5-a]pyrimidine-3-carboxylic acid] | 154 to 155
9 | O=C(CNC(=O)c1cnn2c1N[C@H](c1ccccc1)C[C@@H]2C(F)(F)F)c1cc2ccccc2o1 (stereo in doubt) [Example 285, N-(2-(1-benzofuran-2-yl)-2-oxoethyl)-5-phenyl-7-(trifluoromethyl)-4,5,6,7-tetrahydropyrazolo[1,5-a]pyrimidine-3-carboxamide] | 244 to 245
10 | CCC1(CC)C[C@@H](O)CN1C(=O)c1c(C)nn2c1N[C@@H](c1ccccc1)CC2(C)C (as salt: HCl) [Example 1098, (3R)-5,5-diethyl-1-(((5R)-2,7,7-trimethyl-5-phenyl-4,5,6,7-tetrahydropyrazolo[1,5-a]pyrimidin-3-yl)carbonyl)-3-pyrrolidinol] | 140 to 142
11 | CCC(CC)(NC(=O)c1c(C)nn2c1NC(c1ccccc1)CC2(C)C)c1ccccc1F (stereo not drawn) (as salt: HCl) [Example 843, N-(1-ethyl-1-(2-fluorophenyl)propyl)-2,7,7-trimethyl-5-phenyl-4,5,6,7-tetrahydropyrazolo[1,5-a]pyrimidine-3-carboxamide] | 180 to 182
12 | CCC1(CC)C[C@@H](OC)CN1C(=O)c1cnn2c1N[C@@H](c1ccccc1)CC2(C)C [Example 1111, (5R)-3-(((4R)-2,2-diethyl-4-methoxy-1-pyrrolidinyl)carbonyl)-7,7-dimethyl-5-phenyl-4,5,6,7-tetrahydropyrazolo[1,5-a]pyrimidine] | 148 to 150
13 | O=C(NCc1ccc(-c2csnn2)cc1)c1cnn2c1NC(c1ccccc1)CC2C(F)(F)F (stereo not drawn) [Example 278, 5-phenyl-N-(4-(1,2,3-thiadiazol-4-yl)benzyl)-7-(trifluoromethyl)-4,5,6,7-tetrahydropyrazolo[1,5-a]pyrimidine-3-carboxamide] | 205 to 206
14 | CCC(CC)(NC(=O)c1c(C)nn2c1N[C@@H](c1ccccc1)CC2(C)C)c1ccc(Cl)c(C)c1 (as salt: HCl) [Example 1068, (5R)-N-(1-(4-chloro-3-methylphenyl)-1-ethylpropyl)-2,7,7-trimethyl-5-phenyl-4,5,6,7-tetrahydropyrazolo[1,5-a]pyrimidine-3-carboxamide] | 150 to 151

Further lines, results first:

Row | melting point [°C] | SMILES
15 | 150 to 151 | CCC(CC)(Cc1ccc(C)cc1)NC(=O)c1cnn2c1NC(c1ccccc1)CC2(C)C (stereo not drawn) [Example 703, N-(1-ethyl-1-(4-methylbenzyl)propyl)-7,7-dimethyl-5-phenyl-4,5,6,7-tetrahydropyrazolo[1,5-a]pyrimidine-3-carboxamide]
16 | 177 to 178 | CCCc1ccc(C(CC)(CC)NC(=O)c2cnn3c2NC(c2ccccc2)CC3(C)C)cc1 (stereo not drawn) [Example 706, N-(1-ethyl-1-(4-propylphenyl)propyl)-7,7-dimethyl-5-phenyl-4,5,6,7-tetrahydropyrazolo[1,5-a]pyrimidine-3-carboxamide]
17 | 143 to 145 | CCC(CC)(NC(=O)c1cnn2c1NC(c1ccccc1C)CC2(C)C)c1ccc(Cl)cc1 (stereo not drawn) [Example 697, N-(1-(4-chlorophenyl)-1-ethylpropyl)-7,7-dimethyl-5-(2-methylphenyl)-4,5,6,7-tetrahydropyrazolo[1,5-a]pyrimidine-3-carboxamide]
18 | 182 to 183 | CCC(CC)(NC(=O)c1c(C)nn2c1NC(c1ccccc1)CC2(C)C)c1ccc(F)cc1 (stereo not drawn) [Example 761, N-(1-ethyl-1-(4-fluorophenyl)propyl)-2,7,7-trimethyl-5-phenyl-4,5,6,7-tetrahydropyrazolo[1,5-a]pyrimidine-3-carboxamide]
19 | 128 to 129 | CCC(CC)(NC(=O)c1c(C)nn2c1N[C@@H](c1ccccc1)CC2(C)C)c1ccc(Cl)cc1 [Example 1042, (5R)-N-(1-(4-chlorophenyl)-1-ethylpropyl)-2,7,7-trimethyl-5-phenyl-4,5,6,7-tetrahydropyrazolo[1,5-a]pyrimidine-3-carboxamide]
20 | 130 to 131 | CCC(CC)(NC(=O)c1cnn2c1NC(c1ccccc1)CC2(C)C)C1CCCCC1 (stereo not drawn) [Example 432, N-(1-cyclohexyl-1-ethylpropyl)-7,7-dimethyl-5-phenyl-4,5,6,7-tetrahydropyrazolo[1,5-a]pyrimidine-3-carboxamide]
21 | 150 to 151 | CCC(CC)(NC(=O)c1cnn2c1NC(c1ccccc1)CC2(C)C)c1ccc(CCC(=O)OC(C)C)cc1 (stereo not drawn) (as salt: HCl) [Example 816, isopropyl 3-(4-(1-(((7,7-dimethyl-5-phenyl-4,5,6,7-tetrahydropyrazolo[1,5-a]pyrimidin-3-yl)carbonyl)amino)-1-ethyl-propyl)phenyl)propanoate]
22 | 159 to 160 | CCC(CC)(NC(=O)c1cnn2c1N[C@@H](c1ccccc1)CC2(C)C)c1ccc(CO)cc1 (as salt: HCl) [Example 1077, (5R)-N-(1-ethyl-1-(4-(hydroxymethyl)phenyl)propyl)-7,7-dimethyl-5-phenyl-4,5,6,7-tetrahydropyrazolo[1,5-a]pyrimidine-3-carboxamide]
23 | 176 to 177 | CCCC(CC)(CC)NC(=O)c1c(C)nn2c1N[C@@H](c1ccccc1)CC2(C)C (as salt: HCl) [Example 1055, (5R)-N-(1,1-diethylbutyl)-2,7,7-trimethyl-5-phenyl-4,5,6,7-tetrahydropyrazolo[1,5-a]pyrimidine-3-carboxamide]
24 | 129 to 130 | CCC(CC)(NC(=O)c1cnn2c1NC(c1ccccc1)CC2(C)C)c1ccc(Br)cc1 (stereo not drawn) [Example 413, N-(1-(4-bromophenyl)-1-ethylpropyl)-7,7-dimethyl-5-phenyl-4,5,6,7-tetrahydropyrazolo[1,5-a]pyrimidine-3-carboxamide]
